What all share (type): functional
For one assay, the system named is Bacillus subtilis. Description: Antibacterial activity against Bacillus subtilis CCTCC AB2013121 by broth microdilution method. On the technique in general: Broth dilution looks for growth in wells or tubes with falling amounts of substance.
Another assay relates to Staphylococcus aureus. In words: Antibacterial activity against Staphylococcus aureus ATCC 29213 by broth microdilution method.
Another assay concerns Micrococcus luteus. Description: Antibacterial activity against Micrococcus luteus CCTCC AB2013120 by broth microdilution method.
For another assay, the system named is Enterococcus faecalis. Description: Antibacterial activity against Enterococcus faecalis ATCC 29212 by broth microdilution method.
For the next assay, the system named is Bacillus thuringiensis. Description: Antibacterial activity against Bacillus thuringiensis CCTCC AB2013119 by broth microdilution method.

SMILES strings stand for the structures. ≈ marks a conversion by molar mass, not a printed value.

From ChEMBL document CHEMBL4043183, “Elucidation of a carboxylate O-methyltransferase NcmP in nocamycin biosynthetic pathway” (2017) come the findings set out here.

As a reminder, the MIC is the smallest concentration in the dilution series that meets the test's criterion for growth inhibition. High values mean a need for much substance, low ones inhibition by little substance.

Consider `COC(=O)[C@H]1[C@@H](C)O[C@@]2(C)CC(=O)[C@H]3O[C@@]12O[C@H]([C@H](C)/C=C(C)/C=C/C(O)=C1/C(=O)CNC1=O)[C@H]3C`, for which the MIC with Bacillus subtilis is above 128 µg/mL; against Staphylococcus aureus it was 32 µg/mL (≈ 63.5 µM); in the assay on Micrococcus luteus it was 16 µg/mL (≈ 31.8 µM); with Enterococcus faecalis it was 4 µg/mL (≈ 7.94 µM); in the assay on Bacillus thuringiensis it was 0.5 µg/mL (≈ 0.993 µM).

Turning to `CC(/C=C/C(O)=C1/C(=O)CNC1=O)=C\[C@@H](C)[C@H]1O[C@@]23O[C@H](C(=O)C[C@]2(C)O[C@H](C)[C@@H]3C(=O)O)[C@@H]1C`, the MIC in the assay with Bacillus subtilis is above 128 µg/mL; with Staphylococcus aureus, above 128 µg/mL; in the assay with Micrococcus luteus it was above 128 µg/mL; against Enterococcus faecalis, above 128 µg/mL; in the assay on Bacillus thuringiensis, 32 µg/mL (≈ 65.4 µM).
